Measurements: PubChem BioAssay AID1259408 (Genetic Toxicology Data Bank (GENE-TOX), 2018)
Active and inactive are the calls of the source. The rule behind the calls is not given here.

Tested on: GENE-TOX genotoxicity assays, various organisms and cells
Test: GENE-TOX mutagenicity studies
Conditions: for call: Assay Type: In vivo carcinogenicity studies
[1] = Species/Cell Type: Human, Assay Type: Sister-chromatid exchange (SCE) in vitro, Assay Code: SC1T, Evaluation Type: Evaluation B (Post-1980)
[2] = Species/Cell Type: Mammalian polychromatic erythrocytes, Assay Type: Micronucleus test, chromosome aberrations, Assay Code: MNT+, Evaluation Type: Evaluation B (Post-1980)
[3] = Species/Cell Type: Salmonella typhimurium (one or more of the five standard strains: TA98, TA100, TA1535, TA1537, and TA1538), Assay Type: Histidine reverse gene mutation, Ames assay, Assay Code: SALT, Evaluation Type: Evaluation A (Pre-1980)
[4] = Species/Cell Type: Saccharomyces cerevisiae, Assay Type: Mitotic recombination or gene conversion, Assay Code: YEH-, Evaluation Type: Evaluation A (Pre-1980)
[5] = Species/Cell Type: Salmonella typhimurium (one or more of the five standard strains: TA98, TA100, TA1535, TA1537, and TA1538), Assay Type: Histidine reverse gene mutation, Ames assay, Assay Code: SAL+*, Activation: With metabolic activation, Evaluation Type: Evaluation A (Pre-1980)
[6] = Species/Cell Type: Salmonella typhimurium (one or more of the five standard strains: TA98, TA100, TA1535, TA1537, and TA1538), Assay Type: Histidine reverse gene mutation, Ames assay, Assay Code: SAL+, Evaluation Type: Evaluation A (Pre-1980)

Q: How did the mutagenic call (Species/Cell Type: Mammalian polychromatic erythrocytes, Assay Type: Micronucleus test, chromosome aberrations, Assay Code: MNT-, Evaluation Type: Evaluation B (Post-1980)) turn out when CCN(CC)c1ccc2c(-c3ccc(C(=O)O)cc3C(=O)[O-])c3ccc(=[N+](CC)CC)cc-3oc2c1 was run?
A: Its mutagenic call is “inactive; negative”.

Q: What about the mutagenic call (Species/Cell Type: Nonhuman, Assay Type: Sister-chromatid exchange (SCE) in vitro, Assay Code: SC2+D, Dose Response: With dose response, Evaluation Type: Evaluation B (Post-1980)) of the same compound?
A: Its mutagenic call is “active; positive”.

Q: For O=C(O)c1c(Cl)c(Cl)c(Cl)c(Cl)c1-c1c2cc(Br)c(=O)c(Br)c-2oc2c(Br)c(O)c(Br)cc12, which mutagenic call (Species/Cell Type: Bacillus subtilis (H17 vs M45), Assay Type: Rec-assay, spot test, DNA effects (bacterial DNA repair), Assay Code: REWT, Evaluation Type: Evaluation A (Pre-1980)) is on record?
A: Its mutagenic call is “no conclusion”.

Q: For CNC(=O)Oc1ccccc1C(C)C, which mutagenic call (Species/Cell Type: Bacillus subtilis (H17 vs M45T), Assay Type: Rec-assay, spot test, DNA effects (bacterial DNA repair), Assay Code: REX-, Evaluation Type: Evaluation A (Pre-1980)) is on record?
A: The mutagenic call was “inactive; negative”.

Q: And the mutagenic call (Species/Cell Type: Escherichia coli WP2, Assay Type: Tryptophan reverse gene mutation, Assay Code: WP2-, Evaluation Type: Evaluation A (Pre-1980))?
A: Its mutagenic call is “inactive; negative”.

Q: N/C=N/O was tested. Which mutagenic call (Species/Cell Type: Escherichia coli polA (W3119 vs P3478), Assay Type: Rec-assay, DNA effects (bacterial DNA repair), Assay Code: RE1+, Evaluation Type: Evaluation A (Pre-1980)) did it give?
A: The mutagenic call was “active; positive”.

Q: With C#CC(C)OC(=O)Nc1cccc(Cl)c1 (stereo not given) (tested in a mixture with another compound) as the compound, how does the mutagenic call (Species/Cell Type: Saccharomyces cerevisiae, Assay Type: Mitotic recombination or gene conversion, Assay Code: YEC-, Evaluation Type: Evaluation A (Pre-1980)) read?
A: Its mutagenic call is “inactive; negative”.

Q: Which mutagenic call (Species/Cell Type: Human lymphocytes, Assay Type: Sister-chromatid exchange (SCE) in vivo, Assay Code: SCY+, Evaluation Type: Evaluation B (Post-1980)) does the source give for COc1ccc2c(c1)c(CC(=O)O)c(C)n2C(=O)c1ccc(Cl)cc1 here?
A: Its mutagenic call is “active; positive”.

Q: What about the mutagenic call [1] of the same compound?
A: The mutagenic call was “no conclusion”.

Q: What about the mutagenic call [2] of the same compound?
A: Its mutagenic call is “active; positive”.

Q: And the mutagenic call (Species/Cell Type: Nonhuman, Assay Type: Sister-chromatid exchange (SCE) in vitro, Assay Code: SC2T, Evaluation Type: Evaluation B (Post-1980))?
A: Its mutagenic call is “no conclusion”.

Q: For OCC(F)(F)F, which mutagenic call [3] is on record?
A: Its mutagenic call is “no conclusion”.

Q: With [Cl][Th]([Cl])([Cl])[Cl] as the compound, how does the mutagenic call (Species/Cell Type: Bacillus subtilis (H17 vs M45), Assay Type: Rec-assay, spot test, DNA effects (bacterial DNA repair), Assay Code: REW-, Evaluation Type: Evaluation A (Pre-1980)) read?
A: The mutagenic call was “inactive; negative”.

Q: How did the mutagenic call (Species/Cell Type: Escherichia coli polA (W3110 vs P3478), Assay Type: Rec-assay, DNA effects (bacterial DNA repair), Assay Code: RE2-, Evaluation Type: Evaluation A (Pre-1980)) turn out when c1ccc2c(c1)ccc1c3ccccc3ccc21 was run?
A: Its mutagenic call is “inactive; negative”.

Q: And the mutagenic call (Species/Cell Type: Escherichia coli polA (W3119 vs P3478), Assay Type: Rec-assay, DNA effects (bacterial DNA repair), Assay Code: RE1T, Evaluation Type: Evaluation A (Pre-1980))?
A: Its mutagenic call is “no conclusion”.

Q: And the mutagenic call (Species/Cell Type: Mammalian germ cells, Sex: Male, Assay Type: Chromosome aberrations in vivo, Assay Code: CY9-, Evaluation Type: Evaluation A (Pre-1980))?
A: Its mutagenic call is “inactive; negative”.

Q: What about the mutagenic call (Species/Cell Type: Mouse prostate cells, Assay Type: Cell transformation, Assay Code: CTM-, Evaluation Type: Evaluation A (Pre-1980)) of the same compound?
A: The mutagenic call was “inactive; negative”.

Q: And the call (Species/Cell Type: Nonhuman, Assay Code: CCG+L, Evaluation Type: Evaluation A (Pre-1980))?
A: The call was “active; positive”.

Q: And the mutagenic call (Species/Cell Type: Nonhuman, Assay Type: Sister-chromatid exchange (SCE) in vivo, Assay Code: SC3+, Evaluation Type: Evaluation B (Post-1980))?
A: Its mutagenic call is “active; positive”.

Q: What about the mutagenic call (Species/Cell Type: Nonhuman, Assay Type: Sister-chromatid exchange (SCE) in vivo, Assay Code: SC3T, Evaluation Type: Evaluation A (Pre-1980)) of the same compound?
A: The mutagenic call was “no conclusion”.

Q: What about the mutagenic call [4] of the same compound?
A: Its mutagenic call is “inactive; negative”.

Q: What about the mutagenic call [5] of the same compound?
A: Its mutagenic call is “active; positive”.

Q: What about the mutagenic call (Species/Cell Type: Salmonella typhimurium, Assay Type: Forward and reverse gene mutation, host-mediated assay, Assay Code: HMA-, Evaluation Type: Evaluation A (Pre-1980)) of the same compound?
A: Its mutagenic call is “inactive; negative”.

Q: What about the mutagenic call (Species/Cell Type: Syrian hamster embryo (SHE) cells, Assay Type: Cell transformation, clonal assay, Assay Code: CTC+, Evaluation Type: Evaluation A (Pre-1980)) of the same compound?
A: The mutagenic call was “active; positive”.

Q: With COc1cccc(C2CO2)c1 (stereo not given) as the compound, how does the mutagenic call (Species/Cell Type: Escherichia coli WP2 UVRA, Assay Type: Tryptophan reverse gene mutation, Assay Code: WPU-, Evaluation Type: Evaluation A (Pre-1980)) read?
A: The mutagenic call was “inactive; negative”.

Q: For COC(=O)[C@@]12Oc3ccc(-c4ccc5c(c4O)C(O)=C4C(=O)C[C@H](C)[C@@H](O)[C@]4(C(=O)OC)O5)c(O)c3C(O)=C1C(=O)C[C@H](C)[C@H]2O, which mutagenic call [3] is on record?
A: Its mutagenic call is “no conclusion”.

Q: For CCOc1ccccc1[N+](=O)[O-], which mutagenic call [6] is on record?
A: The mutagenic call was “active; positive”.

Q: Oc1cc2cccc3ccc4c5ccccc5cc1c4c32 was tested. Which mutagenic call (Species/Cell Type: Chinese hamster lung (V79) cells, Assay Type: Forward gene mutation at the HPRT or ouabain locus, Assay Code: V79-, Evaluation Type: Evaluation A (Pre-1980)) did it give?
A: Its mutagenic call is “inactive; negative”.

Q: And the call (Species/Cell Type: Nonhuman, Assay Code: CCGT, Evaluation Type: Evaluation A (Pre-1980))?
A: Its call is “no conclusion”.

Q: And the mutagenic call [3]?
A: Its mutagenic call is “no conclusion”.

Q: How did the mutagenic call (Species/Cell Type: Neurospora crassa, Assay Type: Forward gene mutation, Assay Code: NEF-, Evaluation Type: Evaluation A (Pre-1980)) turn out when O=C(CCc1ccc([N+](=O)[O-])o1)NC1CCCCC1 was run?
A: Its mutagenic call is “inactive; negative”.

Q: How did the mutagenic call [4] turn out when CC(C)c1ccccc1 was run?
A: The mutagenic call was “inactive; negative”.

Q: What about the mutagenic call (Species/Cell Type: Salmonella typhimurium (one or more of the five standard strains: TA98, TA100, TA1535, TA1537, and TA1538), Assay Type: Histidine reverse gene mutation, Ames assay, Assay Code: SAL-, Evaluation Type: Evaluation A (Pre-1980)) of the same compound?
A: Its mutagenic call is “inactive; negative”.

Q: Which mutagenic call [5] does the source give for CCCCCN(CCCCO)N=O here?
A: Its mutagenic call is “active; positive”.

Q: How did the mutagenic call (Species/Cell Type: Aspergillus nidulans, Assay Type: Reverse gene mutation, Assay Code: ASR+*, Activation: With metabolic activation, Evaluation Type: Evaluation A (Pre-1980)) turn out when CCNc1nc(Cl)nc(NC(C)C)n1 was run?
A: Its mutagenic call is “active; positive”.

Q: What about the mutagenic call (Species/Cell Type: Drosophila melanogaster, Assay Type: Aneuploidy, sex chromosome gain, chromosome aberrations, Assay Code: DAGT, Evaluation Type: Evaluation A (Pre-1980)) of the same compound?
A: The mutagenic call was “no conclusion”.

Q: What about the mutagenic call (Species/Cell Type: Drosophila melanogaster, Assay Type: Aneuploidy, whole sex chromosome loss, chromosome aberrations, Assay Code: DACT, Evaluation Type: Evaluation A (Pre-1980)) of the same compound?
A: The mutagenic call was “no conclusion”.

Q: And the mutagenic call (Species/Cell Type: Drosophila melanogaster, Assay Type: Sex-linked recessive lethal gene mutation, Assay Code: SRLT, Evaluation Type: Evaluation A (Pre-1980))?
A: The mutagenic call was “no conclusion”.

Q: And the mutagenic call (Species/Cell Type: Hordeum vulgare (barley), Assay Type: Chromosome aberrations, Assay Code: HOC+, Evaluation Type: Evaluation A (Pre-1980))?
A: The mutagenic call was “active; positive”.

Q: What about the mutagenic call (Species/Cell Type: Neurospora crassa, Assay Type: Aneuploidy, chromosome aberrations, Assay Code: NEN-, Evaluation Type: Evaluation A (Pre-1980)) of the same compound?
A: The mutagenic call was “inactive; negative”.

Q: What about the mutagenic call (Species/Cell Type: Saccharomyces cerevisiae, Assay Type: Mitotic recombination or gene conversion, Assay Code: YEC+*, Activation: With metabolic activation, Evaluation Type: Evaluation A (Pre-1980)) of the same compound?
A: Its mutagenic call is “active; positive”.

Q: What about the mutagenic call (Species/Cell Type: Tradescantia species, Assay Type: Gene mutation, Assay Code: TRM-, Evaluation Type: Evaluation A (Pre-1980)) of the same compound?
A: The mutagenic call was “inactive; negative”.

Q: What about the mutagenic call (Species/Cell Type: Vicia faba, Assay Type: Chromosome aberrations, Assay Code: VIC+, Evaluation Type: Evaluation A (Pre-1980)) of the same compound?
A: Its mutagenic call is “active; positive”.

Q: And the mutagenic call (Species/Cell Type: Zea mays (corn), Assay Type: Gene mutation, Assay Code: ZEM+F, Evaluation Type: Evaluation A (Pre-1980))?
A: The mutagenic call was “active; positive”.

Q: What does the source list for C(CCC1CO1)CC1CO1 (stereo not given)?
A: mutagenic call (Species/Cell Type: Neurospora crassa, Assay Type: Forward gene mutation, Assay Code: NEF+, Evaluation Type: Evaluation A (Pre-1980)): active; positive; mutagenic call [6]: active; positive

Q: With COc1c(OC)c(O)c2c(=O)c(OC)c(-c3ccc(O)c(O)c3)oc2c1OC as the compound, how does the mutagenic call [2] read?
A: The mutagenic call was “active; positive”.

Q: What does the source list for CC(C)C[C@H]1C(=O)N2CCC[C@H]2[C@]2(O)O[C@](NC(=O)[C@@H]3C=C4c5cccc6[nH]c(Br)c(c56)C[C@H]4N(C)C3)(C(C)C)C(=O)N12?
A: mutagenic call (Species/Cell Type: Human lymphocytes, Assay Type: Sister-chromatid exchange (SCE) in vitro, Assay Code: SCLT, Evaluation Type: Evaluation B (Post-1980)): no conclusion; mutagenic call [1]: no conclusion; mutagenic call (Species/Cell Type: Human, Sex: Male, Assay Type: Sperm morphology, Assay Code: SPH-, Evaluation Type: Evaluation A (Pre-1980)): inactive; negative

Q: CC1(C)S[C@@H]2[C@H](NC(=O)[C@H](N)c3ccccc3)C(=O)N2[C@H]1C(=O)O was tested. Which mutagenic call (Species/Cell Type: Escherichia coli polA (W3119 vs P3478), Assay Type: Rec-assay, DNA effects (bacterial DNA repair), Assay Code: RE1-, Evaluation Type: Evaluation A (Pre-1980)) did it give?
A: Its mutagenic call is “inactive; negative”.

Q: What does the source list for CC(O)CO (stereo not given)?
A: mutagenic call (Species/Cell Type: Human, Assay Type: Sister-chromatid exchange (SCE) in vitro, Assay Code: SC1-, Evaluation Type: Evaluation B (Post-1980)): inactive; negative; mutagenic call (Species/Cell Type: Syrian hamster embryo (SHE) cells, Assay Type: Cell transformation, clonal assay, Assay Code: CTC-, Evaluation Type: Evaluation A (Pre-1980)): inactive; negative

Q: For Cc1cc(O)ccc1C1(c2ccc(O)cc2C)OS(=O)(=O)c2ccccc21, which mutagenic call (Species/Cell Type: Allium cepa, Assay Type: Chromosome aberrations, Assay Code: ALC+D, Dose Response: With dose response, Evaluation Type: Evaluation A (Pre-1980)) is on record?
A: The mutagenic call was “active; positive”.

Q: How did the mutagenic call (Species/Cell Type: Syrian hamster embryo (SA7/SHE) cells, Assay Type: Cell transformation, viral enhanced, Assay Code: CT7+, Evaluation Type: Evaluation A (Pre-1980)) turn out when CC(=O)[O-].[Tl+] was run?
A: Its mutagenic call is “active; positive”.
